According to ChEMBL document CHEMBL3526152, “Cytoprotective effect of 20S-Rg3 on benzo[a]pyrene-induced DNA damage” (Drug Metab Dispos, 2012):
Activity calls are given as the source filed them. No cut-off for these calls is given here.

Tests used:
HDF [1] = experiment: Cytoprotective activity in neonatal HDF assessed as reduction of BaP-induced cell death at 10 uM after 24 hrs by MTT assay; format: functional; settings: Homo sapiens
[2] = Cytotoxicity against neonatal HDF assessed as cell viability at 10 uM after 24 hrs by MTT assay relative to control; format: functional; settings: Homo sapiens, read-out: Activity
[3] = Cytoprotective activity in neonatal HDF assessed as reduction of BaP-induced DNA strand breakage by measuring tunnel positive cells at 10 uM after 24 hrs (reference value: 15.96%); format: functional, Homo sapiens; set-up: scale not given: the % may be the effect or the level left
HDF [4] = experiment: Cytoprotective activity in neonatal HDF assessed as reduction of BaP-induced tail moment at 10 uM after 24 hrs by comet assay; format: functional; settings: Homo sapiens
HDF [5] = experiment: Cytoprotective activity in neonatal HDF assessed as reduction of BaP-induced tail moment at 10 uM after 24 hrs by comet assay in presence of PI3K/Akt inhibitor LY294002; format: functional; settings: Homo sapiens
[6] = biological target: RAC-alpha serine/threonine-protein kinase (Homo sapiens) (UniProt P31749); experiment: Induction of AKT phosphorylation at Ser473 in neonatal HDF at 10 uM by Western blot analysis; settings: TDE = time-dependent effect
Homo sapiens = species: Homo sapiens; experiment: Induction of ERK phosphorylation at Thr202/Try204 in neonatal HDF at 10 uM by Western blot analysis; settings: TDE = time-dependent effect
[7] = biological target: T1, Nuclear factor erythroid 2-related factor 2 (Homo sapiens) (UniProt Q16236); experiment: Induction of Nrf2 nuclear translocation in BaP-treated neonatal HDF at 10 uM after 2 hrs by DAPI staining-based confocal scanning laser microcopic analysis
T1 sequence (whole entry): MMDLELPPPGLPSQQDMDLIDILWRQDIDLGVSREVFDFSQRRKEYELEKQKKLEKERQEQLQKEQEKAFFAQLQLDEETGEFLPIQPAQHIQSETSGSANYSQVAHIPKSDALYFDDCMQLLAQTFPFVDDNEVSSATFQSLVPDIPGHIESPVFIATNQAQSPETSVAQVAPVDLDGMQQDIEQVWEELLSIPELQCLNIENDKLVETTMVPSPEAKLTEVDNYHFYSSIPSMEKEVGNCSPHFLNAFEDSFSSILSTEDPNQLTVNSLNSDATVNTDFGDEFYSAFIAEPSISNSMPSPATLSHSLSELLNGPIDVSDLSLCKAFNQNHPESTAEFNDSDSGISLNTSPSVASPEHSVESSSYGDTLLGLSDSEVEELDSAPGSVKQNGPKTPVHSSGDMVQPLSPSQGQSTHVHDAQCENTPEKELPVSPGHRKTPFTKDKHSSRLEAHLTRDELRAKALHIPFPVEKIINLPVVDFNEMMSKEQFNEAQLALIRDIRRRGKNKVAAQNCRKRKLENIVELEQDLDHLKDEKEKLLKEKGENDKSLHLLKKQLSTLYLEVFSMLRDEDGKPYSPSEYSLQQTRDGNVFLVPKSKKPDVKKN

[8] = biological target: T1, Nuclear factor erythroid 2-related factor 2 (Homo sapiens); experiment: Induction of Nrf2 nuclear translocation in neonatal HDF at 10 uM after 2 hrs by DAPI staining-based confocal scanning laser microcopic analysis
[9] = biological target: T1, Nuclear factor erythroid 2-related factor 2 (Homo sapiens); experiment: Induction of Nrf2 nuclear translocation in BaP-treated neonatal HDF at 10 uM after 2 hrs by DAPI staining-based confocal scanning laser microcopic analysis in presence of PI3K/Akt inhibitor LY294002
[10] = biological target: T1, Nuclear factor erythroid 2-related factor 2 (Homo sapiens); experiment: Induction of Nrf2 nuclear translocation in BaP-treated neonatal HDF assessed as upregulation of NQO1 mRNA expression at 10 uM after 24 hrs by real-time PCR analysis relative to BaP-treated control
[11] = biological target: T2, Nuclear receptor subfamily 1 group I member 2 (Homo sapiens, UniProt O75469); experiment: Competitive binding affinity to PXR in human HepG2 cells at 0.01 to 50 uM by FRET analysis in presence of […]; format: cell-based
T2 sequence (O75469 whole entry): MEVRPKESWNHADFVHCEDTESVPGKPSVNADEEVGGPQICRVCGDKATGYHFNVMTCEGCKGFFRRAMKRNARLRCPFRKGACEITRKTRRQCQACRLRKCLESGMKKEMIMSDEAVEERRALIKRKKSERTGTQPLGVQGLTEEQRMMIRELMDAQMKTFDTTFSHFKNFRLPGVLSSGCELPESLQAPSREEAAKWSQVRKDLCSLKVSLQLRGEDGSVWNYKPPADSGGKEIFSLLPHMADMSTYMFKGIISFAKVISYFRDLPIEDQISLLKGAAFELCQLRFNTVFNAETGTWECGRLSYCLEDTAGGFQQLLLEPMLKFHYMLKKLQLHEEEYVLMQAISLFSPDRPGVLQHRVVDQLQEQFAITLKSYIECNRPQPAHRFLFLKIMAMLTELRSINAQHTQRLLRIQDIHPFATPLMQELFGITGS

HepG2 [12] = experiment: Cytoprotective activity in human HepG2 cells assessed as reduction of BaP-induced tail moment at 10 uM after 24 hrs by comet assay; format: functional, cell-based
HepG2 [13] = experiment: Cytoprotective activity in human HepG2 cells transfected with siPXR assessed as reduction of BaP-induced tail moment at 10 uM after 24 hrs by comet assay; format: functional, cell-based
Plasma = experiment: Plasma concentration in human at 60 mg by HPLC-MS analysis; format: ADME

Sequence of RAC-alpha serine/threonine-protein kinase (Homo sapiens) (P31749 whole entry): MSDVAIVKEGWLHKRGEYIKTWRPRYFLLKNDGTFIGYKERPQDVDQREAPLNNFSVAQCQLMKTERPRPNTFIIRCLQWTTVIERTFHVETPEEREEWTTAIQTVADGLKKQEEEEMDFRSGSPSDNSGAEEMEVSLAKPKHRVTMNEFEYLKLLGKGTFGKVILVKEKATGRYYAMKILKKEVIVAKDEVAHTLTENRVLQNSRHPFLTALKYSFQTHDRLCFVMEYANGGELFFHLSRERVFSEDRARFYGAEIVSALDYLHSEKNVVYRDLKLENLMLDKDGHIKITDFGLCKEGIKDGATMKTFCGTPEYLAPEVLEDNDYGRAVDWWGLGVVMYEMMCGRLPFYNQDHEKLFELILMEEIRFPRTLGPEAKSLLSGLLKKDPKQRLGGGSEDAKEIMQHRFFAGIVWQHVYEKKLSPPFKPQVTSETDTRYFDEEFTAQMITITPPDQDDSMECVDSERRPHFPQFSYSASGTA

CC(C)=CCC[C@](C)(O[C@@H]1O[C@H](CO)[C@@H](O)[C@H](O)[C@H]1O)[C@H]1CC[C@]2(C)[C@@H]1[C@H](O)C[C@@H]1[C@@]3(C)CC[C@H](O)C(C)(C)[C@@H]3[C@@H](O[C@@H]3O[C@H](CO)[C@@H](O)[C@H](O)[C@H]3O)C[C@]12C [GINSENOSIDE RG1]
Activity (HDF [1]): inactive
viability at 10 µM [2]: 98%
Activity [3]: 20.97%
Activity (HDF [4]): inactive

CC(C)=CCC[C@](C)(O)[C@H]1CC[C@]2(C)[C@@H]1[C@H](O)C[C@@H]1[C@@]3(C)CC[C@H](O[C@@H]4O[C@H](CO)[C@@H](O)[C@H](O)[C@H]4O[C@@H]4O[C@H](CO)[C@@H](O)[C@H](O)[C@H]4O)C(C)(C)[C@@H]3CC[C@]12C
Activity (HDF [1]): Active
viability at 10 µM [2]: 124%
Activity [3]: 3.07%
Activity (HDF [4]): Active
Activity (HDF [5]): inactive
Activity [6]: tde
Activity (Homo sapiens): tde
Activity [7]: Active
Activity [8]: Active
Activity [9]: inactive
fold change (FC) [10]: 2
Activity [11]: Active
Activity (HepG2 [12]): Active
Activity (HepG2 [13]): inactive
concentration (Plasma): 3 nM

CC(C)=CCC[C@@](C)(O)[C@H]1CC[C@]2(C)[C@@H]1[C@H](O)C[C@@H]1[C@@]3(C)CC[C@H](O[C@@H]4O[C@H](CO)[C@@H](O)[C@H](O)[C@H]4O[C@@H]4O[C@H](CO)[C@@H](O)[C@H](O)[C@H]4O)C(C)(C)[C@@H]3CC[C@]12C
Activity (HDF [1]): inactive
viability at 10 µM [2]: 105%
Activity [3]: 12.76%
Activity (HDF [4]): inactive

CC(C)=CCC[C@](C)(O[C@@H]1O[C@H](CO[C@@H]2O[C@H](CO)[C@@H](O)[C@H](O)[C@H]2O)[C@@H](O)[C@H](O)[C@H]1O)[C@H]1CC[C@]2(C)[C@@H]1[C@H](O)C[C@@H]1[C@@]3(C)CC[C@H](O[C@@H]4O[C@H](CO)[C@@H](O)[C@H](O)[C@H]4O[C@@H]4O[C@H](CO)[C@@H](O)[C@H](O)[C@H]4O)C(C)(C)[C@@H]3CC[C@]12C [GINSENOSIDE RB1]
Activity (HDF [1]): inactive
viability at 10 µM [2]: 91%
Activity [3]: 9.77%
Activity (HDF [4]): inactive
